Assay: xn = mol fraction of the nth substance listed

NC=O + CCCO
Settings	viscosity [mPa·s]
293.15 K, 101 kPa, x1 = 0.0557	2.16
293.15 K, 101 kPa, x1 = 0.1172	2.201
293.15 K, 101 kPa, x1 = 0.1854	2.285
293.15 K, 101 kPa, x1 = 0.2615	2.419
298.15 K, 100 kPa, x1 = 0.0744	1.97
298.15 K, 100 kPa, x1 = 0.116	1.98
298.15 K, 100 kPa, x1 = 0.1885	2.07
298.15 K, 100 kPa, x1 = 0.294	2.27
298.15 K, 100 kPa, x1 = 0.3225	2.33
298.15 K, 100 kPa, x1 = 0.331	2.4
298.15 K, 100 kPa, x1 = 0.4121	2.54
298.15 K, 100 kPa, x1 = 0.4562	2.61
298.15 K, 100 kPa, x1 = 0.4974	2.73
298.15 K, 100 kPa, x1 = 0.5225	2.76
298.15 K, 100 kPa, x1 = 0.6129	2.96
298.15 K, 100 kPa, x1 = 0.6877	3.09
298.15 K, 100 kPa, x1 = 0.7379	3.17
298.15 K, 100 kPa, x1 = 0.8232	3.28
298.15 K, 100 kPa, x1 = 0.8536	3.31
298.15 K, 100 kPa, x1 = 0.9169	3.36
298.15 K, 100 kPa, x1 = 0.9506	3.34
298.15 K, 101 kPa, x1 = 0.0557	1.938
298.15 K, 101 kPa, x1 = 0.1172	1.976
298.15 K, 101 kPa, x1 = 0.1854	2.052
298.15 K, 101 kPa, x1 = 0.2615	2.181
303.15 K, 101 kPa, x1 = 0.0557	1.742
303.15 K, 101 kPa, x1 = 0.1172	1.775
303.15 K, 101 kPa, x1 = 0.1854	1.846
303.15 K, 101 kPa, x1 = 0.2615	1.962
303.15 K, 101 kPa, x2 = 0.0999	2.877
303.15 K, 101 kPa, x2 = 0.2004	2.813
303.15 K, 101 kPa, x2 = 0.3002	2.706
303.15 K, 101 kPa, x2 = 0.4	2.554
303.15 K, 101 kPa, x2 = 0.5	2.378
303.15 K, 101 kPa, x2 = 0.6	2.191
303.15 K, 101 kPa, x2 = 0.6998	2.022
303.15 K, 101 kPa, x2 = 0.8	1.87
303.15 K, 101 kPa, x2 = 0.9001	1.756
303.15 K, 101.3 kPa, x1 = 0.0961	1.6
303.15 K, 101.3 kPa, x1 = 0.1755	1.7
303.15 K, 101.3 kPa, x1 = 0.2494	1.8
303.15 K, 101.3 kPa, x1 = 0.3192	1.9
303.15 K, 101.3 kPa, x1 = 0.3902	2
303.15 K, 101.3 kPa, x1 = 0.4629	2.1
303.15 K, 101.3 kPa, x1 = 0.5342	2.2
303.15 K, 101.3 kPa, x1 = 0.614	2.4
303.15 K, 101.3 kPa, x1 = 0.6891	2.6
303.15 K, 101.3 kPa, x1 = 0.7654	2.7
303.15 K, 101.3 kPa, x1 = 0.8114	2.7
303.15 K, 101.3 kPa, x1 = 0.921	2.8
308.15 K, 101 kPa, x1 = 0.0557	1.584
308.15 K, 101 kPa, x1 = 0.1172	1.618
308.15 K, 101 kPa, x1 = 0.1854	1.678
308.15 K, 101 kPa, x1 = 0.2615	1.798
308.15 K, 101 kPa, x2 = 0.0999	2.554
308.15 K, 101 kPa, x2 = 0.2004	2.492
308.15 K, 101 kPa, x2 = 0.3002	2.393
308.15 K, 101 kPa, x2 = 0.4	2.261
308.15 K, 101 kPa, x2 = 0.5	2.11
308.15 K, 101 kPa, x2 = 0.6	1.949
308.15 K, 101 kPa, x2 = 0.6998	1.802
308.15 K, 101 kPa, x2 = 0.8	1.669
308.15 K, 101 kPa, x2 = 0.9001	1.569
308.15 K, 101.3 kPa, x1 = 0.0961	1.4
308.15 K, 101.3 kPa, x1 = 0.1755	1.5
308.15 K, 101.3 kPa, x1 = 0.2494	1.5
308.15 K, 101.3 kPa, x1 = 0.3192	1.6
308.15 K, 101.3 kPa, x1 = 0.3902	1.7
308.15 K, 101.3 kPa, x1 = 0.4629	1.8
308.15 K, 101.3 kPa, x1 = 0.5342	1.9
308.15 K, 101.3 kPa, x1 = 0.614	2.1
308.15 K, 101.3 kPa, x1 = 0.6891	2.2
308.15 K, 101.3 kPa, x1 = 0.7654	2.3
308.15 K, 101.3 kPa, x1 = 0.8114	2.4
308.15 K, 101.3 kPa, x1 = 0.921	2.5
313.15 K, 101 kPa, x1 = 0.0557	1.349
313.15 K, 101 kPa, x1 = 0.1172	1.388
313.15 K, 101 kPa, x1 = 0.1854	1.457
313.15 K, 101 kPa, x1 = 0.2615	1.595
313.15 K, 101 kPa, x2 = 0.0999	2.285
313.15 K, 101 kPa, x2 = 0.2004	2.223
313.15 K, 101 kPa, x2 = 0.3002	2.133
313.15 K, 101 kPa, x2 = 0.4	2.015
313.15 K, 101 kPa, x2 = 0.5	1.881
313.15 K, 101 kPa, x2 = 0.6	1.74
313.15 K, 101 kPa, x2 = 0.6998	1.61
313.15 K, 101 kPa, x2 = 0.8	1.494
313.15 K, 101 kPa, x2 = 0.9001	1.407
313.15 K, 101.3 kPa, x1 = 0.0961	1.3
313.15 K, 101.3 kPa, x1 = 0.1755	1.3
313.15 K, 101.3 kPa, x1 = 0.2494	1.4
313.15 K, 101.3 kPa, x1 = 0.3192	1.5
313.15 K, 101.3 kPa, x1 = 0.3902	1.6
313.15 K, 101.3 kPa, x1 = 0.4629	1.7
313.15 K, 101.3 kPa, x1 = 0.5342	1.7
313.15 K, 101.3 kPa, x1 = 0.614	1.9
313.15 K, 101.3 kPa, x1 = 0.6891	2
313.15 K, 101.3 kPa, x1 = 0.7654	2.1
313.15 K, 101.3 kPa, x1 = 0.8114	2.1
313.15 K, 101.3 kPa, x1 = 0.921	2.2
318.15 K, 101 kPa, x1 = 0.0557	1.219
318.15 K, 101 kPa, x1 = 0.1172	1.263
318.15 K, 101 kPa, x1 = 0.1854	1.333
318.15 K, 101 kPa, x2 = 0.0999	2.056
318.15 K, 101 kPa, x2 = 0.2004	1.995
318.15 K, 101 kPa, x2 = 0.3002	1.912
318.15 K, 101 kPa, x2 = 0.4	1.804
318.15 K, 101 kPa, x2 = 0.5	1.685
318.15 K, 101 kPa, x2 = 0.6	1.561
318.15 K, 101 kPa, x2 = 0.6998	1.447
318.15 K, 101 kPa, x2 = 0.8	1.344
318.15 K, 101 kPa, x2 = 0.9001	1.266
318.15 K, 101.3 kPa, x1 = 0.0961	1.1
318.15 K, 101.3 kPa, x1 = 0.1755	1.1
318.15 K, 101.3 kPa, x1 = 0.2494	1.2
318.15 K, 101.3 kPa, x1 = 0.3192	1.3
318.15 K, 101.3 kPa, x1 = 0.3902	1.4
318.15 K, 101.3 kPa, x1 = 0.4629	1.5
318.15 K, 101.3 kPa, x1 = 0.5342	1.5
318.15 K, 101.3 kPa, x1 = 0.614	1.6
318.15 K, 101.3 kPa, x1 = 0.6891	1.7
318.15 K, 101.3 kPa, x1 = 0.7654	1.8
318.15 K, 101.3 kPa, x1 = 0.8114	1.9
318.15 K, 101.3 kPa, x1 = 0.921	1.9
323.15 K, 101 kPa, x2 = 0.0999	1.86
323.15 K, 101 kPa, x2 = 0.2004	1.801
323.15 K, 101 kPa, x2 = 0.3002	1.722
323.15 K, 101 kPa, x2 = 0.4	1.624
323.15 K, 101 kPa, x2 = 0.5	1.517
323.15 K, 101 kPa, x2 = 0.6	1.405
323.15 K, 101 kPa, x2 = 0.6998	1.304
323.15 K, 101 kPa, x2 = 0.8	1.212
323.15 K, 101 kPa, x2 = 0.9001	1.141
323.15 K, 101.3 kPa, x1 = 0.0961	0.92
323.15 K, 101.3 kPa, x1 = 0.1755	0.95
323.15 K, 101.3 kPa, x1 = 0.2494	1
323.15 K, 101.3 kPa, x1 = 0.3192	1.05
323.15 K, 101.3 kPa, x1 = 0.3902	1.1
323.15 K, 101.3 kPa, x1 = 0.4629	1.2
323.15 K, 101.3 kPa, x1 = 0.5342	1.3
323.15 K, 101.3 kPa, x1 = 0.614	1.3
323.15 K, 101.3 kPa, x1 = 0.6891	1.4
323.15 K, 101.3 kPa, x1 = 0.7654	1.5
323.15 K, 101.3 kPa, x1 = 0.8114	1.5
323.15 K, 101.3 kPa, x1 = 0.921	1.6
